Our source for the Kd values is ChEMBL document CHEMBL1135566, “Synthesis of a novel fluorescent probe for estrogen receptor” (Bioorg Med Chem Lett, 2002).

The target of this assay is T1, Estrogen receptor (Homo sapiens, UniProt P03372).
T1 sequence (P03372 whole entry): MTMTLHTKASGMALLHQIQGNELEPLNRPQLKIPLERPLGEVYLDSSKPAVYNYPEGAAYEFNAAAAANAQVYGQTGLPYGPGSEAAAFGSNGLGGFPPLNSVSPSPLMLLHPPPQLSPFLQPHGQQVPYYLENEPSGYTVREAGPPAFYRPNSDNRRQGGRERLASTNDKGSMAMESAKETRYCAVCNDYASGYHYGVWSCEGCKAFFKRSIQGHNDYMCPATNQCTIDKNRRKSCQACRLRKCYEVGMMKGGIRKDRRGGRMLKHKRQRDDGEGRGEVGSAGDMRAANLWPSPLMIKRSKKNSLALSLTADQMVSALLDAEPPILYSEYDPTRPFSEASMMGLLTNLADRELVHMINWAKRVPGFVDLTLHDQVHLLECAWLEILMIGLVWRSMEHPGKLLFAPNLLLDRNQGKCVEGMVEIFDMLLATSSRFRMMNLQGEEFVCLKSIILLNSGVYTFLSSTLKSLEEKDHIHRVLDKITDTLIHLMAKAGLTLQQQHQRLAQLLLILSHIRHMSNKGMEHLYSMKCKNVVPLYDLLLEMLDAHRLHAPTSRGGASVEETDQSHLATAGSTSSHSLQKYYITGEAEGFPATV
The assay can be described thus: Binding constant for Estrogen receptor alpha.

Molecules are shown by their SMILES.

`CC/C(=C(/CC)c1ccc(OCCCC(=O)NCc2ccc(-c3c4ccc(=O)cc-4oc4cc(O)ccc34)c(C(=O)O)c2)cc1)c1ccc(O)cc1`: the Kd was 5.8 nM.

A word on the Kd: it is the equilibrium constant for the complex coming apart.
